Earlier results, collected in patent US20050244368A1, “Pre-endoscopic use of polyethylene glycol compositions” (priority 2004, published 2005).

Details: % of adult patients (Zwas et al., 1996)

colonic mucosal changes mimicking inflammatory bowel disease: up to 24%
Structure (SMILES): O=P(O)(O)O [sodium phosphate]
